Key:
[1] = tested on: Wistar rats exposed to physical and mental stressors; test: Antistress effect: stool weight excreted during restraint stressor load in rats; format: in vivo; details: rat; for average stool wet weight: 2 h before 1 h restraint stressor, vehicle 1.79 g, normal 0.04 g
Procedure: Male Sic: Wistar rats (Japan SLC, Inc., at the time of use: 11 weeks old) was exposed to physical and mental stressors (Journal of Pharmacological Science, Vol. 104, p. 263-273, 2007). The vehicle (0.5 w/v % methylcellulose 400 cP solution) or the compound of the present invention (0.1, 0.3, 1 and 3 mg/kg) was orally administered. Two hours after the administration, the stressor load was started by putting the rat in a restraint stress cage (Natsume Seisakusho Co., Ltd.). The antistress effect was evaluated by measuring the stool weight which was excreted during the stressor load of 1 hour (n=12 in each group).

brain TSPO = biological target: T1, brain TSPO (Homo sapiens, UniProt P30536); test: Prediction of brain TSPO occupancy in steady state, once daily in humans (Biological example 8); details: for ROmax (%) Predicted 5 percentile / ROmax (%) Predicted 95 percentile / ROmax (%) Predicted median: maximum brain TSPO occupancy; for ROmin (%) Predicted 5 percentile / ROmin (%) Predicted 95 percentile / ROmin (%) Predicted median: minimum brain TSPO occupancy
T1 construct: from tissue; host or cells: living human brain (PET, healthy adults)
T1 sequence (P30536 whole entry): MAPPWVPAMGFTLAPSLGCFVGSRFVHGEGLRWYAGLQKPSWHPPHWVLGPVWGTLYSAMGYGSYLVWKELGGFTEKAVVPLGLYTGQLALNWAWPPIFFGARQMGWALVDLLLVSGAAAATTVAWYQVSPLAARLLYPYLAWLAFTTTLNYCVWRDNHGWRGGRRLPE
Excerpt: Further, a transition in the plasma concentration of the compound of the present invention, in a steady state when administered once daily, was predicted. And brain TSPO occupancy was predicted by using the relationship between plasma concentration and brain TSPO occupancy that shown in FIG. 5.

[2] = tested on: olfactory bulb isolated rats; test: Antidepressant effect: excessive emotional reactivity in olfactory bulb isolated rats; format: in vivo; details: rat, 0.3, 1 and 3 mg/kg oral once daily, before and after administration on day 7, p<0.01 Steel test
Excerpt: Male Crlj: WI rats (Charles River Laboratories Japan, Inc., at the time of surgery: 11 weeks old) were used to prepare an olfactory bulb isolated rat in accordance with Yamaguchi et al. method (Journal of the Pharmaceutical Society of Japan, Vol. 130, p. 175-183, 2007). The head of the anesthetized rat with pentobarbital sodium was fixed to brain stereotaxic apparatus (ASI Instruments Inc., NARISHIGE). After incising the scalp, holes to the left and right olfactory bulb region of the skull (7 mm forward and 1.8 mm laterally from bregma) were made with a dental drill. After aspirating and removing the left and right olfactory bulb by an aspirator coupled to an oral sonde which except for the tip, scalp was sutured. […] After 14 days of surgery, the excessive emotional reactivity was evaluated in accordance with the method of Gomita et al. (Journal of the Pharmaceutical Society of Japan, Vol. 82, p. 267-292, 1983). […]
A vehicle (physiological saline solution containing 0.5% Tween 80) or the compound of the present invention (0.3, 1 or 3 mg/kg) was orally administered to the olfactory bulb isolated rat repeatedly once daily for 8 days. […] On day 7, the excessive emotional reactivity was evaluated before and 1 hour after the administration.

For `COc1cc(Cl)ccc1[C@H]1c2[nH]c3cccc(F)c3c2C2(CC2)CN1C(C)=O` [the compound of the present invention, (1S)-2-acetyl-1-(4-chloro-2-methoxyphenyl)-5-fluoro-1,2,3,9-tetrahydrospiro[β-carboline-4,1′-cyclopropane]], the “average stool wet weight” value ([1]; 0.1 mg/kg oral) was 1.48 g, the “average stool wet weight” value ([1]; 0.3 mg/kg oral) was 0.96 g and the “average stool wet weight” value ([1]; 1 mg/kg oral) was 0.60 g. For the same molecule, the “average stool wet weight” value ([1]; 3 mg/kg oral) was 0.67 g, the “effect on stool wet weight compared to the vehicle treated group” value ([1]; dose of 0.3, 1 and 3 mg/kg oral) was “significantly inhibit the stool wet weight” and the “ROmax (%) Predicted 5 percentile” value (brain TSPO; dose 1 mg) was 28.3%. The “ROmax (%) Predicted 95 percentile” value (brain TSPO; dose 1 mg) was 48.8%, the “ROmax (%) Predicted median” value (brain TSPO; dose 1 mg) was 38.4% and the “ROmin (%) Predicted 5 percentile” value (brain TSPO; dose 1 mg) was 11.5%. For the same molecule, the “ROmin (%) Predicted 95 percentile” value (brain TSPO; dose 1 mg) was 30.5%, the “ROmin (%) Predicted median” value (brain TSPO; dose 1 mg) was 19.4% and the “ROmax (%) Predicted 5 percentile” value (brain TSPO; dose 5 mg) was 60.5%. For the same molecule, the “ROmax (%) Predicted 95 percentile” value (brain TSPO; dose 5 mg) was 84.6%, the “ROmax (%) Predicted median” value (brain TSPO; dose 5 mg) was 72.0% and the “ROmin (%) Predicted 5 percentile” value (brain TSPO; dose 5 mg) was 38.0%. The “ROmin (%) Predicted 95 percentile” value (brain TSPO; dose 5 mg) was 67.7%, the “ROmin (%) Predicted median” value (brain TSPO; dose 5 mg) was 52.5% and the “ROmax (%) Predicted 5 percentile” value (brain TSPO; dose 10 mg) was 69.6%. For the same molecule, the “ROmax (%) Predicted 95 percentile” value (brain TSPO; dose 10 mg) was 94.2%, the “ROmax (%) Predicted median” value (brain TSPO; dose 10 mg) was 80.9% and the “ROmin (%) Predicted 5 percentile” value (brain TSPO; dose 10 mg) was 52.8%. The “ROmin (%) Predicted 95 percentile” value (brain TSPO; dose 10 mg) was 81.0%, the “ROmin (%) Predicted median” value (brain TSPO; dose 10 mg) was 67.1% and the “ROmax (%) Predicted 5 percentile” value (brain TSPO; dose 20 mg) was 75.1%. The “ROmax (%) Predicted 95 percentile” value (brain TSPO; dose 20 mg) was 100.0%, the “ROmax (%) Predicted median” value (brain TSPO; dose 20 mg) was 86.4% and the “ROmin (%) Predicted 5 percentile” value (brain TSPO; dose 20 mg) was 64.6%. For the same molecule, the “ROmin (%) Predicted 95 percentile” value (brain TSPO; dose 20 mg) was 91.5%, the “ROmin (%) Predicted median” value (brain TSPO; dose 20 mg) was 77.6% and the “ROmax (%) Predicted 5 percentile” value (brain TSPO; dose 30 mg) was 77.0%. For the same molecule, the “ROmax (%) Predicted 95 percentile” value (brain TSPO; dose 30 mg) was 102.6%, the “ROmax (%) Predicted median” value (brain TSPO; dose 30 mg) was 88.5% and the “ROmin (%) Predicted 5 percentile” value (brain TSPO; dose 30 mg) was 69.7%. For the same molecule, the “ROmin (%) Predicted 95 percentile” value (brain TSPO; dose 30 mg) was 94.9%, the “ROmin (%) Predicted median” value (brain TSPO; dose 30 mg) was 81.8% and the “ROmax (%) Predicted 5 percentile” value (brain TSPO; dose 50 mg) was 78.7%. For the same molecule, the “ROmax (%) Predicted 95 percentile” value (brain TSPO; dose 50 mg) was 104.0%, the “ROmax (%) Predicted median” value (brain TSPO; dose 50 mg) was 90.2% and the “ROmin (%) Predicted 5 percentile” value (brain TSPO; dose 50 mg) was 74.1%. For the same molecule, the “ROmin (%) Predicted 95 percentile” value (brain TSPO; dose 50 mg) was 99.0%, the “ROmin (%) Predicted median” value (brain TSPO; dose 50 mg) was 85.8% and the “ROmax (%) Predicted 5 percentile” value (brain TSPO; dose 60 mg) was 78.8%. The “ROmax (%) Predicted 95 percentile” value (brain TSPO; dose 60 mg) was 104.2%, the “ROmax (%) Predicted median” value (brain TSPO; dose 60 mg) was 91.0% and the “ROmin (%) Predicted 5 percentile” value (brain TSPO; dose 60 mg) was 75.0%. For the same molecule, the “ROmin (%) Predicted 95 percentile” value (brain TSPO; dose 60 mg) was 100.1%, the “ROmin (%) Predicted median” value (brain TSPO; dose 60 mg) was 87.0% and the “ROmax (%) Predicted 5 percentile” value (brain TSPO; dose 70 mg) was 79.4%. For the same molecule, the “ROmax (%) Predicted 95 percentile” value (brain TSPO; dose 70 mg) was 104.8%, the “ROmax (%) Predicted median” value (brain TSPO; dose 70 mg) was 91.2% and the “ROmin (%) Predicted 5 percentile” value (brain TSPO; dose 70 mg) was 76.4%. For the same molecule, the “ROmin (%) Predicted 95 percentile” value (brain TSPO; dose 70 mg) was 101.1%, the “ROmin (%) Predicted median” value (brain TSPO; dose 70 mg) was 88.2% and the “ROmax (%) Predicted 5 percentile” value (brain TSPO; dose 100 mg) was 80.1%. The “ROmax (%) Predicted 95 percentile” value (brain TSPO; dose 100 mg) was 106.1%, the “ROmax (%) Predicted median” value (brain TSPO; dose 100 mg) was 92.1% and the “ROmin (%) Predicted 5 percentile” value (brain TSPO; dose 100 mg) was 77.6%. The “ROmin (%) Predicted 95 percentile” value (brain TSPO; dose 100 mg) was 103.1%, the “ROmin (%) Predicted median” value (brain TSPO; dose 100 mg) was 90.0% and the “excessive emotional score compared with the vehicle control group” value [2] was “significantly lower”.

Reference: US20170119742A1, “MEDICAMENT FOR PREVENTING AND/OR TREATING STRESS DISEASES” (ONO PHARMACEUTICAL CO., LTD., priority 2014, published 2017)
